For data set [1] the following is noted: in vivo; cited from earlier work.
Data set [2] is described as follows: Stability of the compositions (storage, light, heating under vacuum).
The test system of data set [3] is subject with osteonecrosis of the jaw and osteoarthritis. In words: Efficacy study in one subject: daily oral strontium L-lactate. Type of data set: in vivo, human. On the procedure:
Likewise, today there are no effective treatments for osteonecrosis of the jaw caused by lengthy use of bone resorption inhibitors (anti-resorptives). […] The test subject experienced deterioration of the jawbone sufficient to loosen their teeth and cause pain when chewing. They received a 200 mg dose of strontium as the L-lactate each day, taken separately from food. […] Over a 3-month period, the subject receiving this treatment experienced a restoration of the jawbone sufficient to set the teeth more firmly and reduce the pain associated with chewing. […] The benefits were so remarkable that the subject continued treatment for at least 8 months, with continuing resolution of the bone and cartilage defects.
A subject suffered from latent osteonecrosis of the jaw as a result of several years of alendronate treatment for osteoporosis. In addition to loose teeth and jaw pain during chewing due to the osteonecrosis, they suffered from osteoarthritis. Their dentist advised them that the necrosis was so serious they would lose several teeth and might have to change from a normal diet to a soft-food diet. Their arthritis was so severe that they had to give up crocheting and knitting, hobbies they had enjoyed for many years. […] They requested access to strontium L-lactate of the present invention. […] Their treatment continued for 8 months with similar improvements.

For data set [4] the following is noted: for Area under the curve (AUC0-∞), Mean / Half-life (T1/2), Mean / Oral Bioavailability, Mean / Rate of elimination (K), Mean / Maximum serum concentration (Cmax), Mean: 10 subjects; for Maximum serum concentration (Cmax), Mean: fasted. The source says: The study was approved by an Institutional Review Board. […] Each provided informed consent to participate in the study.
On the day of dose administration, the subjects arrived at the clinic fasted. Their qualifications for enrollment were reviewed to ensure compliance. Immediately prior to administration of the test article, an indwelling venous catheter was placed and a blood sample was withdrawn into a trace metal-free tube (the t=0 sample). […] After drinking the test article solution, fasting continued for 2 hours. During the day, however, subjects were provided usual and customary meals. Potential adverse events were monitored.
Each blood sample was stored appropriately until all samples had been collected for the day. Then the blood samples were centrifuged to separate the serum, and each serum sample was transferred into two trace metal-free vials. The vials were shipped to an independent analytical laboratory for serum strontium analyses.
One week later, on the day of dose administration, the same subjects arrived at the clinic fasted. Their qualifications for enrollment were reviewed to ensure compliance. Immediately prior to administration of the test article, an indwelling venous catheter was placed and a blood sample was withdrawn into a trace metal-free tube (the t=0 sample). […] After drinking the test article solution, fasting continued for 2 hours. During the day, however, subjects were provided usual and customary meals. Potential adverse events were monitored.

Data set [5] concerns subjects with femoral neck BMD less than 0.600 g/cm^2. Kind of data set: Double-blind clinical study, non-vertebral fractures over 3 year follow-up (expected results). Particulars: 200 mg strontium daily vs placebo.
Description: In a double-blind clinical study, 80 subjects are divided into two groups (n=40). The control group receives a daily supplement containing 1.8 g of sodium L-lactate (placebo). […] All non-vertebral fractures will be recorded with the exception of the coccyx, skull, jaw, face, phalanx (fingers and toes) and ankle, since these latter are not regarded as being related to osteoporosis.
For data set [6] the following is noted: daily doses of 0.3-0.6 grams; cited from earlier work.
Data set [7] relates to men and women having low bone mass. The settings on record: cited from earlier work.
The mark [8] stands for this setting: about 200 mg strontium per day orally, after 3 months.

Entries after “also recorded” stand apart in the source; their conditions may differ. Where two headings read alike, the source gives them in different places. Some results are limits rather than exact numbers.

As to `C[C@@H](O)C(=O)O` [D-lactate], the “blood concentration causing acidosis and encephalopathies” value in data set [1] was not below 3000 µM.

`C[C@H](O)C(=O)[O-].C[C@H](O)C(=O)[O-].O.O.O.[Sr+2]` [strontium L-lactate trihydrate]: the “stability on exposure to light” value in data set [2] is “stable”. The stability during storage entry in data set [2] (25° C./60% relative humidity) is on record as “stable”. In data set [2] (solid heated under vacuum, about 100° C. to about 130° C.), the racemization on heating result is “No racemization”.

Turning to `C[C@H](O)C(=O)[O-].C[C@H](O)C(=O)[O-].[Sr+2]` [strontium L-lactate], the side effects entry in data set [3] (200 mg strontium per day, at least 8 months) was “no side effects”. For the same compound, in data set [3] (setting [8]), the “osteoarthritis: stiffness, pain, flexibility of hands” value was “increased flexibility of osteoarthritic hands and fingers; also recorded: the stiffness and pain of their osteoarthritis had significantly abated”; the “osteonecrosis of the jaw: teeth setting and pain when chewing” value was “reduced the injury and pain associated with osteonecrosis of the jaw; also recorded: their teeth were more set in their jawbone and that they experienced less pain when chewing”. In addition, the “average serum concentration of strontium compared with strontium ranelate” value in data set [4] (170 mg dose of strontium as L-lactate vs 680 mg dose of strontium as ranelate (U.S. Pat. No. 7,595,342)) is recorded as “approximately equaled the serum concentration of strontium achieved by ingesting a 680 mg dose of strontium as the ranelate; also recorded: approximately equal to the serum concentrations of strontium provided by 680 mg of water-insoluble strontium ranelate”. For the same compound, the “time at which average serum strontium concentration reached a maximum” value in data set [4] (after ingesting a solution of strontium L-lactate in water) is “about 3 hr”. The adverse effects result in data set [4] (after ingesting any of three escalating doses (170, 340, 680 mg strontium)) is listed as “no adverse effects”. In data set [4] (oral dose 170 mg strontium), the “Area under the curve (AUC0-∞), Mean” value was found to be 47.8 mg Sr/L · h; the “Half-life (T1/2), Mean” value is 12.3; the “Oral Bioavailability, Mean” value is listed as 0.94; the “Rate of elimination (K), Mean” value worked out at 0.06 h⁻¹. In data set [4] (oral dose 340 mg strontium), the “Area under the curve (AUC0-∞), Mean” value is on record as 115.6 mg Sr/L · h; the “Half-life (T1/2), Mean” value is recorded as 12.1; the “Oral Bioavailability, Mean” value came out at 0.93; the “Rate of elimination (K), Mean” value came out at 0.06 h⁻¹. In addition, in data set [4] (oral dose 680 mg strontium), the “Area under the curve (AUC0-∞), Mean” value turned out to be 185.0 mg Sr/L · h; the “Half-life (T1/2), Mean” value came to 14.0; the “Oral Bioavailability, Mean” value turned out to be 0.94; the “Rate of elimination (K), Mean” value is 0.05 h⁻¹. Besides, the “Maximum serum concentration (Cmax), Mean” value in data set [4] (single oral dose 340 mg strontium as strontium L-lactate in 100 mL water) was determined as 6.3 mg Sr/L. The “Maximum serum concentration (Cmax), Mean” value in data set [4] (single oral dose 680 mg strontium as strontium L-lactate in 100 mL water) was 9.3 mg Sr/L. The non-vertebral fractures entry in data set [5] is on record as “significant reduction in all non-vertebral fractures”.

In the case of `CC(O)C(=O)[O-].CC(O)C(=O)[O-].[Sr+2]` (centres unmarked) [strontium lactate], in data set [6], the “albumin in the urine” value was “decrease albumin in the urine”.

Turning to `N#Cc1c(N(CC(=O)[O-])CC(=O)[O-])sc(C(=O)[O-])c1CC(=O)[O-].[Sr+2].[Sr+2]` [strontium ranelate], the incidence of fractures result in data set [7] (daily dose of 2 grams (680 mg strontium), almost a decade of clinical use) is “significantly reduced incidence of fractures”. For the same compound, the “side effects of therapeutic doses of the strontium ion” value in data set [7] (human exposure) is “does not cause gastric irritation, esophageal cancer, colon cancer, or osteonecrosis of the jaw”.

Consider `O=C([O-])CCC(=O)[O-].[Sr+2]` [strontium succinate], for which, in data set [7] (daily dose of 1.7 grams (680 mg strontium)), the “benefit in treating osteoporosis” value is recorded as “highly beneficial in treating osteoporosis”.

The values are drawn from patent publication US11026906B2 (priority 2016, dated 2021).
